From PMC11013139, “Identification of Corn Peptides with Alcohol Dehydrogenase Activating Activity Absorbed by Caco-2 Cell Monolayers” (Molecules, 2024)
Where no end group is shown, it is not given here.

Tests used:
ADH = biological target: T1, ADH (Saccharomyces cerevisiae, UniProt P00330); experiment: ADH activation activity in vitro (improved assay kit method); type: biochemical; details: synthetic peptides; ADH 0.2 U/mL, NAD+ and ethanol, 37 °C, absorbance 340 nm every 10 s for 10 min; mean ± SD of three parallel experiments
T1 sequence (P00330 1-348): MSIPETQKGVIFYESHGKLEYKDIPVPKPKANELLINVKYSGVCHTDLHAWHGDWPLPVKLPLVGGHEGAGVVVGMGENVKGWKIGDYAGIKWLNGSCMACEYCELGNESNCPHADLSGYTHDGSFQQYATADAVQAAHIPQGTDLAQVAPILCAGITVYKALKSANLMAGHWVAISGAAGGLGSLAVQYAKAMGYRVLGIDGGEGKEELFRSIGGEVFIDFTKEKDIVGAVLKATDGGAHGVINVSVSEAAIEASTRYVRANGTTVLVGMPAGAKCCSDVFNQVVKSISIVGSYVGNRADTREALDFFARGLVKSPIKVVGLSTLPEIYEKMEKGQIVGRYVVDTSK
Description: The ADH activation activity in vitro was detected using an improved assay kit method. The specific steps are as follows: 50 μL of the sample solution was mixed with 150 μL of the assay reagent (including buffer, NAD^+, and ethanol); after equilibrating at 37 °C for 5 min, 50 μL of ADH (0.2 U/mL) was added to initiate the reaction. The absorbance at 340 nm was measured using a Varioskan Flash (Thermo Fisher Scientific, Waltham, MA, USA) full-wavelength scanning multimode reader, with readings taken every 10 s for 10 min. Distilled water was used as a negative control in place of the sample. The reaction kinetics curve was fitted, and the first derivative of the curve at 0 min was calculated as the initial reaction rate. The initial reaction rate of the sample was recorded as Vs, while that of the negative control was recorded as V0. The ADH activation rate of the sample can be calculated using the following equation:(1) ADH activation activity %=VS−V0/V0×100

ADH enzyme = details: cited from earlier work
Text: The results of molecular docking were visualized by selecting three peptides with the lowest binding energy, as depicted in Figure 5. Three peptides successfully docked onto the hydrophobic cavity near the ADH active site, primarily binding to ADH through hydrogen bonds and hydrophobic interactions. Twelve hydrogen bonds were formed between SSNCQPF and ADH residues (His 44, Gly 181, Leu 182, Gly 183, Val 245, Ser 246, Val 247, Met 270, Glu 333, Gly 339, Arg 340). Ten hydrogen bonds were formed between QPQQP ...

| Substance | EC50 (ADH) | binding energy between peptide KPC and ADH enzyme (ADH enzyme) |
| --- | --- | --- |
| QPQQPW [QPQQPW] | 2730 ± 130 µM | – |
| TGCPVLQ [TGCPVLQ] | 2260 ± 160 µM | – |
| Lys-Pro-Cys [KPC, Chicken-derived tripeptide KPC (Lys-Pro-Cys)] | – | -6.6 kcal/mol |
| SSNCQPF [SSNCQPF] | 1350 ± 220 µM | – |
